Measured values as given in patent US12453709B2, “Compositions and methods for treating autism” (priority 2013, dated 2025).
Marks after values point to notes of the source that are not given here.

Test system: male patients diagnosed with autism
Assay: Study HT 02-121: adverse events
Type: in vivo, human
Procedure: The purpose of this clinical study (referred to herein as “Study HT 02-121”; i.e., Example 6) was to determine whether L1-79 was a well-tolerated and clinically useful agent for the treatment of ASD, and to assess the PK and pharmacodynamics (PD) of four weeks of TID dosing with L1-79. […] The first cohort of 20 patients was comprised of three groups of patients: The first group of five patients received open-label L1-79 100 mg TID and underwent PK and EKG assessments. […] The PK and safety data from the open-label L1-79 100 mg TID group was submitted to FDA for review and acceptance before the second cohort was enrolled. The second cohort was procedurally identical to the first. The second cohort of 20 patients was comprised of the same three groups of patients but a dose of 200 mg TID was used instead of 100 mg TID. The key inclusion criteria were as follows: […] Safety was the primary endpoint of the study. The following safety endpoints were assessed: ECGs, physical exams, laboratory evaluations (hematology, chemistry and urinalysis), vital signs, including orthostatic blood pressure, adverse events (AEs) and concomitant medications. The incidence of AEs by primary system organ class and preferred term is presented in Table 7, and a listing of the AEs reported during the study is presented in Table 8. All AEs were mild to moderate in intensity and self-limited.

CC(N)(Cc1ccc(O)cc1)C(=O)O (racemic) [L1-79, α-methyl-DL-tyrosine]
10 [e]: Number of AE events: All primary SOC (DB 200 mg TID, N = 11)
2 [e]: Number of AE events: Crystal urine present (DB 200 mg TID, N = 11) | Number of AE events: Infections and infestations (DB 200 mg TID, N = 11)
6(54.5) n(%): Incidence of AEs: All primary SOC (DB 200 mg TID, N = 11)
1(10.0) n(%): Incidence of AEs: All primary SOC (DB 100 mg TID, N = 10) | Incidence of AEs: Nervous system disorders (DB 100 mg TID, N = 10) | Incidence of AEs: Syncope (DB 100 mg TID, N = 10)
3 [e]: Number of AE events: Diarrhoea (DB 200 mg TID, N = 11) | Number of AE events: GI disorders (DB 200 mg TID, N = 11) | Number of AE events: Investigations (DB 200 mg TID, N = 11)
3(27.3) n(%): Incidence of AEs: Diarrhoea (DB 200 mg TID, N = 11) | Incidence of AEs: GI disorders (DB 200 mg TID, N = 11) | Incidence of AEs: Investigations (DB 200 mg TID, N = 11)
0[0] n(%): Incidence of AEs: Agitation (DB 100 mg TID, N = 10) | Incidence of AEs: Amylase † (DB 100 mg TID, N = 10) | Incidence of AEs: Anxiety (DB 100 mg TID, N = 10) | Incidence of AEs: Blood TSH † (DB 100 mg TID, N = 10) | Incidence of AEs: Confusional state (DB 100 mg TID, N = 10) | Incidence of AEs: Cough (DB 100 mg TID, N = 10) | Incidence of AEs: Crystal urine present (DB 100 mg TID, N = 10) | Incidence of AEs: Diarrhoea (DB 100 mg TID, N = 10) | Incidence of AEs: Ear infection (DB 100 mg TID, N = 10) | Incidence of AEs: Fatigue (DB 100 mg TID, N = 10) | Incidence of AEs: GI disorders (DB 100 mg TID, N = 10) | Incidence of AEs: General disorders & administration site conditions (DB 100 mg TID, N = 10) | Incidence of AEs: Generalized tonic-clonic seizure (DB 100 mg TID, N = 10) | Incidence of AEs: Immune system disorders (DB 100 mg TID, N = 10) | Incidence of AEs: Infections and infestations (DB 100 mg TID, N = 10) | Incidence of AEs: International self-injury (DB 100 mg TID, N = 10) | Incidence of AEs: Investigations (DB 100 mg TID, N = 10) | Incidence of AEs: Irritability (DB 100 mg TID, N = 10) | Incidence of AEs: Nasopharyngitis (DB 100 mg TID, N = 10) | Incidence of AEs: Otitis externa (DB 100 mg TID, N = 10) | Incidence of AEs: Psychiatric disorders (DB 100 mg TID, N = 10) | Incidence of AEs: Pyrexia (DB 100 mg TID, N = 10) | Incidence of AEs: Renal and urinary disorders (DB 100 mg TID, N = 10) | Incidence of AEs: Respiratory, thoracic & mediastinal disorders (DB 100 mg TID, N = 10) | Incidence of AEs: Seasonal allergy (DB 100 mg TID, N = 10) | Incidence of AEs: Urinary incontinence (DB 100 mg TID, N = 10) | Incidence of AEs: Agitation (DB 200 mg TID, N = 11) | Incidence of AEs: Amylase † (DB 200 mg TID, N = 11) | Incidence of AEs: Confusional state (DB 200 mg TID, N = 11) | Incidence of AEs: Cough (DB 200 mg TID, N = 11) | Incidence of AEs: Fatigue (DB 200 mg TID, N = 11) | Incidence of AEs: General disorders & administration site conditions (DB 200 mg TID, N = 11) | Incidence of AEs: Immune system disorders (DB 200 mg TID, N = 11) | Incidence of AEs: International self-injury (DB 200 mg TID, N = 11) | Incidence of AEs: Irritability (DB 200 mg TID, N = 11) | Incidence of AEs: Nasopharyngitis (DB 200 mg TID, N = 11) | Incidence of AEs: Pyrexia (DB 200 mg TID, N = 11) | Incidence of AEs: Renal and urinary disorders (DB 200 mg TID, N = 11) | Incidence of AEs: Respiratory, thoracic & mediastinal disorders (DB 200 mg TID, N = 11) | Incidence of AEs: Seasonal allergy (DB 200 mg TID, N = 11) | Incidence of AEs: Syncope (DB 200 mg TID, N = 11) | Incidence of AEs: Urinary incontinence (DB 200 mg TID, N = 11) | Incidence of AEs: Agitation (OL 100 mg TID, N = 5) | Incidence of AEs: Amylase † (OL 100 mg TID, N = 5) | Incidence of AEs: Blood TSH † (OL 100 mg TID, N = 5) | Incidence of AEs: Cough (OL 100 mg TID, N = 5) | Incidence of AEs: Crystal urine present (OL 100 mg TID, N = 5) | Incidence of AEs: Diarrhoea (OL 100 mg TID, N = 5) | Incidence of AEs: Ear infection (OL 100 mg TID, N = 5) | Incidence of AEs: Fatigue (OL 100 mg TID, N = 5) | Incidence of AEs: GI disorders (OL 100 mg TID, N = 5) | Incidence of AEs: General disorders & administration site conditions (OL 100 mg TID, N = 5) | Incidence of AEs: Generalized tonic-clonic seizure (OL 100 mg TID, N = 5) | Incidence of AEs: Immune system disorders (OL 100 mg TID, N = 5) | Incidence of AEs: Infections and infestations (OL 100 mg TID, N = 5) | Incidence of AEs: Investigations (OL 100 mg TID, N = 5)
1(20.0) n(%): Incidence of AEs: Anxiety (OL 100 mg TID, N = 5) | Incidence of AEs: Confusional state (OL 100 mg TID, N = 5)
2(40.0) n(%): Incidence of AEs: All primary SOC (OL 100 mg TID, N = 5) | Incidence of AEs: International self-injury (OL 100 mg TID, N = 5) | Incidence of AEs: Irritability (OL 100 mg TID, N = 5)
1(9.1) n(%): Incidence of AEs: Anxiety (DB 200 mg TID, N = 11) | Incidence of AEs: Blood TSH † (DB 200 mg TID, N = 11) | Incidence of AEs: Ear infection (DB 200 mg TID, N = 11) | Incidence of AEs: Generalized tonic-clonic seizure (DB 200 mg TID, N = 11) | Incidence of AEs: Nervous system disorders (DB 200 mg TID, N = 11) | Incidence of AEs: Otitis externa (DB 200 mg TID, N = 11) | Incidence of AEs: Psychiatric disorders (DB 200 mg TID, N = 11)
1 [e]: Number of AE events: All primary SOC (DB 100 mg TID, N = 10) | Number of AE events: Nervous system disorders (DB 100 mg TID, N = 10) | Number of AE events: Syncope (DB 100 mg TID, N = 10) | Number of AE events: Anxiety (DB 200 mg TID, N = 11) | Number of AE events: Blood TSH † (DB 200 mg TID, N = 11) | Number of AE events: Ear infection (DB 200 mg TID, N = 11) | Number of AE events: Generalized tonic-clonic seizure (DB 200 mg TID, N = 11) | Number of AE events: Nervous system disorders (DB 200 mg TID, N = 11) | Number of AE events: Otitis externa (DB 200 mg TID, N = 11) | Number of AE events: Psychiatric disorders (DB 200 mg TID, N = 11)
2(18.2) n(%): Incidence of AEs: Crystal urine present (DB 200 mg TID, N = 11) | Incidence of AEs: Infections and infestations (DB 200 mg TID, N = 11)
safe and well tolerated: safety and tolerability (28-day treatment period)
